The structures appear in SMILES notation.

The target of data set [1] is Cholinesterase (Equus caballus, UniProt P81908). In words: Inhibition of equine serum BChE using BTC as substrate incubated for 2 mins by Ellman's method. Format: cell-free. Background: In Ellman's method for cholinesterases, released thiocholine reacts with DTNB.
Data set [2] has as its target T1, Cholinesterase (Homo sapiens, UniProt P06276). In words: Inhibition of human BChE using BTC as substrate incubated for 2 mins by Ellman's method.
In data set [3] the target is Acetylcholinesterase (Electrophorus electricus) (UniProt O42275). In words: Inhibition of electric eel AChE using ATC as substrate at 10 uM incubated for 2 mins by Ellman's method relative to control.
Data set [4] has as its target Acetylcholinesterase (Electrophorus electricus, UniProt O42275). Kind of data set: Inhibition of electric eel AChE using ATC as substrate incubated for 2 mins by Ellman's method.
Data set [5] concerns the target T1, Cholinesterase. In words: Inhibition of human BChE using BTC as substrate at 10 uM incubated for 2 mins by Ellman's method relative to control.
Data set [6] can be described thus: Metabolic stability in human liver microsomes assessed as half life at 2 uM incubated for 60 mins by LC-MS/MS analysis. Format: ADME, Microsome. On the technique in general: Liver microsomes are a subcellular fraction often used to study metabolism.
Data set [7] addresses Cholinesterase (Equus caballus) (UniProt P81908). Kind of data set: Inhibition of equine serum BChE using BTC as substrate at 10 uM incubated for 2 mins by Ellman's method relative to control. Format: cell-free.
Data set [8] relates to Antioxidant response element. In words: Induction of ARE in human HepG2-ARE-C8 cells incubated for 24 hrs by luciferase based assay. Type of data set: cell-based. Particulars: HepG2-ARE-C8, 24 h.

Chain of Acetylcholinesterase (O42275 whole entry): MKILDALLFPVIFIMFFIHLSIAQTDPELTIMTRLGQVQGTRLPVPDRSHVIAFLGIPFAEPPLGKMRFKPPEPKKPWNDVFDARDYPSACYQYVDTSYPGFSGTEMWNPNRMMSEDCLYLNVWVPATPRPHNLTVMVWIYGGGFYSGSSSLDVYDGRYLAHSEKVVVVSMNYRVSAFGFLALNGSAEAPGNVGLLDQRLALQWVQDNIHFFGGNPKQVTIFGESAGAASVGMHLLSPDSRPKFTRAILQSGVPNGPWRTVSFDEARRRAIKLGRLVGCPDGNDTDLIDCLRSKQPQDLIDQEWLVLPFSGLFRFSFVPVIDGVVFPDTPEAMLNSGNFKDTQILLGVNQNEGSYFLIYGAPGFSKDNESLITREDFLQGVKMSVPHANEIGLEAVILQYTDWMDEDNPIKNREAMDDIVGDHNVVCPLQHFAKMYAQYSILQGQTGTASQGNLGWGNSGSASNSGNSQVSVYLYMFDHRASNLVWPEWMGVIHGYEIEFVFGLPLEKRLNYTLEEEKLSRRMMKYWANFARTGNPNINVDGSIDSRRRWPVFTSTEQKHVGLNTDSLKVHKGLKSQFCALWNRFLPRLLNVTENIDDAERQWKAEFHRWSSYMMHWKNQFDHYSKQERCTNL
Chain of Cholinesterase (Equus caballus, UniProt P81908) (P81908 whole entry): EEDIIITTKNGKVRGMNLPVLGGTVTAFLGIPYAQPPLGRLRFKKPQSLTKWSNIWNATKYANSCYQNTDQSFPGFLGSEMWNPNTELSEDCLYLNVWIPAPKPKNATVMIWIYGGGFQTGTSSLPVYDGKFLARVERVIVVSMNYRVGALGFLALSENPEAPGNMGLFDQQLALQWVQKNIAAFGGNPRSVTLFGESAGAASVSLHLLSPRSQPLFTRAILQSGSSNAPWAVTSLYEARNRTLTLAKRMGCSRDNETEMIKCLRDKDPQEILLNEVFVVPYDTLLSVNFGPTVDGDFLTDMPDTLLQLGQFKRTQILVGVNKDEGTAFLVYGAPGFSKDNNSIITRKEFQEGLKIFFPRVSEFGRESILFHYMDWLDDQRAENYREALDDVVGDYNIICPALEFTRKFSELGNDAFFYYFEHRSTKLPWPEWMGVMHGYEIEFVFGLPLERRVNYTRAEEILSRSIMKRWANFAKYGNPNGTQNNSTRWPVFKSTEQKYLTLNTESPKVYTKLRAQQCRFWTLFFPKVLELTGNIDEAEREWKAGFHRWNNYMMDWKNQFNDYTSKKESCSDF
Chain of Acetylcholinesterase (Electrophorus electricus) (O42275 24-633 limits assumed): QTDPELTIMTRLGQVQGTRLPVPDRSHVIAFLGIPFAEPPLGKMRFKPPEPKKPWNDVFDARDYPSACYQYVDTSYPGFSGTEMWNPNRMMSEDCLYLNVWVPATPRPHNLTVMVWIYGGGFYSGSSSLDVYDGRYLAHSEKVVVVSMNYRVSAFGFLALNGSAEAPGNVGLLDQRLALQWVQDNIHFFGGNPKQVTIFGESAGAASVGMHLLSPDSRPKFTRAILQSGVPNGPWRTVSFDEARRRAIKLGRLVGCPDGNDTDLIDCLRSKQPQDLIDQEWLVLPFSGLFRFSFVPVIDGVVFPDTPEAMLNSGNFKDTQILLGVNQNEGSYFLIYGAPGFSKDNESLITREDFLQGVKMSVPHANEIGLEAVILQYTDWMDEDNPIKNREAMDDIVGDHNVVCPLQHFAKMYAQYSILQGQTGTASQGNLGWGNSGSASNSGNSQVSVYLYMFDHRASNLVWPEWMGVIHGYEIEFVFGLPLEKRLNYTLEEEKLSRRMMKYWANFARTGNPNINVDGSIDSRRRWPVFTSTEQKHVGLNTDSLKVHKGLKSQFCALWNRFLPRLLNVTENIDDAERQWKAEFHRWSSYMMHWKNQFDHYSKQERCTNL
T1 sequence (P06276 whole entry): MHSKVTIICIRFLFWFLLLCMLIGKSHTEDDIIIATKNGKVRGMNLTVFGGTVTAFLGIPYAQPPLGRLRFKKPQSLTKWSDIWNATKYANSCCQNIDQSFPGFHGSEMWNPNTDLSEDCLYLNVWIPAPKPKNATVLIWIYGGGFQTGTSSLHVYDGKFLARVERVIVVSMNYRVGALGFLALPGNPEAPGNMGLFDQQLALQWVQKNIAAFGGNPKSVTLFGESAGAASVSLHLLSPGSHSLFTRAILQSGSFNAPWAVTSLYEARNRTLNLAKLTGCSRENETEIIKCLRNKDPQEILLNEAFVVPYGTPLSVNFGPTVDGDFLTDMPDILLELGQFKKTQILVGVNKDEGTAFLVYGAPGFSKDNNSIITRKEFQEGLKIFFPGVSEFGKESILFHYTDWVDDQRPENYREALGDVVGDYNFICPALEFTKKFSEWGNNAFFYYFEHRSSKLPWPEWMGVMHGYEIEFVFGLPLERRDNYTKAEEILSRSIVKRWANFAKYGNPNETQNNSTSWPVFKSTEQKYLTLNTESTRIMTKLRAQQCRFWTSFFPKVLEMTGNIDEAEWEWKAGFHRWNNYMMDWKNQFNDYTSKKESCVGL
Chain of Cholinesterase (Equus caballus) (P81908 whole entry): as the sequence (P81908 whole entry) above

Usually IC50 stands for the concentration needed to halve the response being measured. As usually defined, the inhibition is how much of the control response was suppressed. A high value points to a response far below the control. Turning to `Cc1ccccc1C(=O)Nc1cnc2ccccc2c1N1CCN(Cc2ccccc2)CC1`, the IC50 in data set [1] came to 2240 nM; in data set [2], 1200 nM. In addition, the inhibition in data set [3] was < 50%.
Regarding `O=C(Nc1cnc2ccccc2c1N1CCN(Cc2ccccc2)CC1)c1ccco1`, the figures for the IC50 in data set [1] and in data set [4] were 420 nM and 4220 nM, respectively. The inhibition in data set [5] was < 50%.
As usually defined, the half-life is how long it takes for the measured level to halve. In the case of `O=C(Nc1cnc2ccccc2c1N1CCN(Cc2ccccc2)CC1)c1ccccc1`, the IC50 is 3060 nM in data set [1] and 1680 nM in data set [2]. Further, the inhibition in data set [3] is < 50%. Moreover, in data set [6], the half-life at 2 µM is 9.4 min.
Turning to `O=C(Nc1cnc2ccccc2c1N1CCN(Cc2ccccc2)CC1)c1ccc(Br)cc1`, 1270 nM corresponded to half-maximal inhibition in data set [1] (IC50). For the same compound, the inhibition in data set [5] and in data set [3] was < 50% each time.
Regarding `O=C(Nc1cnc2ccccc2c1N1CCN(Cc2ccccc2)CC1)c1ccc(F)cc1`, the half-inhibitory concentration (IC50) in data set [1] is 3310 nM. Further, the inhibition in data set [5] and in data set [3] was < 50% each time.
Regarding `O=C(Nc1cnc2ccccc2c1N1CCN(Cc2ccccc2)CC1)c1ccccn1`, the IC50 in data set [1] stood at 280 nM; in data set [2], 2660 nM. Also, the inhibition in data set [3] is < 50%.
In turn, `O=C(Cc1ccc(Cl)cc1)Nc1cnc2ccccc2c1N1CCN(Cc2ccccc2)CC1` had an IC50 in data set [1] of 960 nM. The inhibition in data set [5] and in data set [3] was < 50% in each case.
As to `Cc1ccc(C(=O)Nc2cnc3ccccc3c2N2CCN(Cc3ccccc3)CC2)cc1`, the IC50 in data set [1] was 160 nM; in data set [2] it was 770 nM. Also, the inhibition in data set [3] is < 50%.
As for `O=C(Nc1cnc2ccccc2c1N1CCN(Cc2ccccc2)CC1)c1ccc(Cl)cc1Cl`, the 50% inhibitory concentration (IC50) was 230 nM in data set [1] and 2410 nM in data set [2]. For the same compound, the inhibition in data set [3] is < 50%.
Consider `Cc1ccc(C(=O)Nc2cnc3ccccc3c2N2CCN(Cc3ccccc3)CC2)c(C)c1`, for which the figures for the half-maximal inhibitory concentration (IC50) in data set [1], in data set [2] and in data set [4] were 400 nM, 3520 nM and 3770 nM, respectively.
On to `O=C(Nc1cnc2ccccc2c1N1CCN(Cc2ccccc2)CC1)c1cccc([N+](=O)[O-])c1`, for which, in data set [1], half-maximal inhibition (IC50) was put at 1300 nM. The inhibition in data set [5] and in data set [3] was < 50% throughout.
As to `O=C(Nc1cnc2ccccc2c1N1CCN(Cc2ccccc2)CC1)C1CCCCC1`, the IC50 in data set [1] was 11900 nM; in data set [4], 2020 nM. Moreover, the inhibition in data set [5] is < 50%.
Turning to `COc1ccccc1C(=O)Nc1cnc2ccccc2c1N1CCN(Cc2ccccc2)CC1`, the IC50 in data set [1] is 180 nM; in data set [2], 18400 nM. The inhibition in data set [3] was < 50%.
For `O=C(Nc1cnc2ccccc2c1N1CCN(Cc2ccccc2)CC1)c1ccc2ccccc2c1` the same measures were 600 nM, 12000 nM and < 50%.
In data set [1], `O=C(Nc1cnc2ccccc2c1N1CCN(Cc2ccccc2)CC1)c1ccc([N+](=O)[O-])c([N+](=O)[O-])c1` registered a 50% inhibitory concentration (IC50) of 9040 nM. In addition, the inhibition in data set [5] and in data set [3] was < 50% in each case.
`O=C(CCc1ccccc1)Nc1cnc2ccccc2c1N1CCN(Cc2ccccc2)CC1`: the IC50 is 440 nM in data set [1] and 5390 nM in data set [2]. For the same compound, the inhibition in data set [3] was < 50%.
`O=C(Nc1cnc2ccccc2c1N1CCN(Cc2ccccc2)CC1)c1cccc(Cl)c1`: in data set [1], the IC50 stood at 1580 nM. Also, the inhibition in data set [5] and in data set [3] was < 50% throughout.
Compound `Cc1cccc(C(=O)Nc2cnc3ccccc3c2N2CCN(Cc3ccccc3)CC2)n1` yielded an IC50 in data set [1] of 3320 nM. Moreover, the inhibition in data set [5] and in data set [3] was < 50% throughout.
`O=C(Nc1cnc2ccccc2c1N1CCN(Cc2ccccc2)CC1)c1ccc(F)cc1F` showed a half-inhibitory concentration (IC50) in data set [1] of 460 nM. Also, the inhibition in data set [5] and in data set [3] was < 50% each time.
Turning to `Cc1cccc(CC(=O)Nc2cnc3ccccc3c2N2CCN(Cc3ccccc3)CC2)c1`, the values for the IC50 in data set [1] and in data set [2] were 430 nM and 10700 nM, respectively. In data set [3], the inhibition is < 50%.
Compound `O=C(Nc1cnc2ccccc2c1N1CCN(Cc2ccccc2)CC1)c1ccc([N+](=O)[O-])cc1` returned an IC50 in data set [1] of 700 nM. Besides, the inhibition in data set [5] and in data set [3] was < 50% throughout.
For the compound `O=C(Cc1ccccc1Cl)Nc1cnc2ccccc2c1N1CCN(Cc2ccccc2)CC1`, the IC50 in data set [1] is 770 nM; in data set [2] it was 1150 nM. Besides, the inhibition in data set [3] was < 50%.
For `Cc1cccc(C(=O)Nc2cnc3ccccc3c2N2CCN(Cc3ccccc3)CC2)c1`, the IC50 in data set [1] was 360 nM. Moreover, the inhibition in data set [5] and in data set [3] was < 50% throughout.
`O=C(Nc1cnc2ccccc2c1N1CCN(Cc2ccccc2)CC1)c1cccc2ccccc12`: the IC50 came to 140 nM in data set [1] and 4130 nM in data set [2]. Also, the inhibition in data set [3] is < 50%.
On to `O=C(Nc1cnc2ccccc2c1N1CCN(Cc2ccccc2)CC1)C1CCCC1`, for which the figures for the IC50 in data set [1] and in data set [4] were 15100 nM and 1340 nM, respectively. In data set [5], the inhibition is < 50%.
`Cc1ccc(CC(=O)Nc2cnc3ccccc3c2N2CCN(Cc3ccccc3)CC2)cc1`: the half-maximal inhibitory concentration (IC50) in data set [1] worked out at 4730 nM. Besides, the inhibition in data set [5] and in data set [3] was < 50% throughout.
As to `O=C(Nc1cnc2ccccc2c1N1CCN(Cc2ccccc2)CC1)c1ccc(Cl)cc1`, the IC50 was 400 nM in data set [1] and 4330 nM in data set [2]. Besides, the inhibition in data set [3] was < 50%.
In the same order, the values of `CCCCCc1ccc(C(=O)Nc2cnc3ccccc3c2N2CCN(Cc3ccccc3)CC2)cc1` are 170 nM, 1590 nM and < 50%.
Compound `N#Cc1ccc(C(=O)Nc2cnc3ccccc3c2N2CCN(Cc3ccccc3)CC2)cc1` showed an IC50 in data set [1] of 7610 nM. The inhibition in data set [5] and in data set [3] was < 50% in each case.
Consider `O=C(Nc1cnc2ccccc2c1N1CCN(Cc2ccccc2)CC1)C1CCCO1` (centres undefined), for which the inhibition in data set [7], in data set [5] and in data set [3] was < 50% throughout.
As for `O=C(Cc1ccccc1)Nc1cnc2ccccc2c1N1CCN(Cc2ccccc2)CC1`, the IC50 in data set [1] was determined as 590 nM; in data set [2], 9230 nM. Also, the inhibition in data set [3] was < 50%.
For `CCCCc1ccc(C(=O)Nc2cnc3ccccc3c2N2CCN(Cc3ccccc3)CC2)cc1` the same measures were 130 nM, 550 nM and < 50%.
`O=C(Cc1cccc([N+](=O)[O-])c1)Nc1cnc2ccccc2c1N1CCN(Cc2ccccc2)CC1`: half-maximal inhibition in data set [1] (IC50) required 6270 nM. Besides, the inhibition in data set [5] and in data set [3] was < 50% in each case.
For the compound `COc1cccc(C(=O)Nc2cnc3ccccc3c2N2CCN(Cc3ccccc3)CC2)c1`, the IC50 in data set [1] amounted to 300 nM. Moreover, the inhibition in data set [5] and in data set [3] was < 50% throughout.
For `CC(C)c1ccc(C(=O)Nc2cnc3ccccc3c2N2CCN(Cc3ccccc3)CC2)cc1`, the half-maximal inhibitory concentration (IC50) in data set [1] is 1180 nM. Moreover, the inhibition in data set [5] and in data set [3] was < 50% each time.
In the case of `O=C(Nc1cnc2ccccc2c1N1CCN(Cc2ccccc2)CC1)c1cccs1`, the concentration for half-maximal inhibition (IC50) turned out to be 210 nM in data set [1] and 4040 nM in data set [4]. Further, the inhibition in data set [5] was < 50%.
As to `COc1ccc(C(=O)Nc2cnc3ccccc3c2N2CCN(Cc3ccccc3)CC2)cc1`, in data set [1], inhibition was half-maximal at 180 nM (IC50). The inhibition in data set [5] and in data set [3] was < 50% throughout.
As usually defined, the EC50 is the concentration that produces a half-maximal response. `CC(C)(C)c1cc(O)ccc1O` [E319] gave an EC50 in data set [8] of 25600 nM. This lies in the double-digit micromolar range.
`CCc1ccc(C(=O)Nc2cnc3ccccc3c2N2CCN(Cc3ccccc3)CC2)cc1`: the IC50 in data set [1] stood at 2650 nM. For the same compound, the inhibition in data set [5] and in data set [3] was < 50% each time.
Consider `O=C(Nc1cnc2ccccc2c1N1CCN(Cc2ccccc2)CC1)c1ccccc1Cl`, for which the IC50 in data set [1] amounted to 180 nM; in data set [2] it was 1130 nM. For the same compound, the inhibition in data set [3] is < 50%.

The values above are taken from ChEMBL document CHEMBL5500378, “Discovery of 4-benzylpiperazinequinoline BChE inhibitor that suppresses neuroinflammation for the treatment of Alzheimer's disease” (Eur J Med Chem, 2024).
